In patent publication US10406157B2, “Tetrahydropyridopyrazine modulators of GPR6” (Takeda Pharmaceutical Company Limited, priority 2017, dated 2019):

Tests used:
[1] = molecular target: GPR6 receptor expressed in CHO-K1 cells (Homo sapiens (Human), UniProt P46095); assay: In vitro inhibition of constitutive cAMP activity of GPR6 receptor (EC50); assay type: cell-based; conditions: CHO-K1 cells expressing GPR6
Protocol: This cell-based assay measures the ability of test compounds to inhibit the constitutive cAMP activity of GPR6 receptor expressed in CHO-K1 cells. CHO cells are stably expressed with GPR6 receptor, whose expression is controlled by a tetracycline inducible element. The cells were cultured in medium containing F12K, 10% FBS, 1% Penn/Strep, 200 μg/mL Hygromycin. GPR6 receptor expression is induced for 20 hours with 2 μg/mL doxycycline (Sigma D9891) in growth media. After addition of doxycycline, the cells are plated at a density of 450-750 cells per well in 96-well half-volume black tissue culture plates (Costar) and placed in an incubator (37° C., 5% CO2) for 20 hours prior to cAMP assays.
Culture media is removed from the cells and they are washed with 50 μL/well of Ringer's Buffer (MgCl2 0.047 mg/mL, NaH2PO4 0.18 mg/mL, Na2HPO4 0.1 mg/mL, KCl 0.34 mg/mL, NaHCO31.26 mg/mL, D-glucose 1.8 mg/mL, NaCl 7 mg/mL; pH=7.4). The test compounds are suspended in DMSO, diluted in Ringer's Buffer containing 0.5% fatty acid free BSA plus 300 μM 3-isobutyl-1-methylxanthine (IBMX), and incubated on the cells for 45 minutes at 37° C. and 5% CO2. […] Then ULIGHT™-anti-cAMP solution from the LANCE® kit is added and incubated on a shaker at room temperature for 1 hour prior to homogeneous time resolved fluorescence (HTRF) detection in a PerkinElmer EnVision plate reader. […]

[2] = system: 6-OHDA rat model; assay: 6-Hydroxydopamine (6-OHDA) rat model of Parkinson's disease, locomotor activity; assay type: in vivo
Protocol: Compounds that improve motor activity are considered promising as potential therapies for Parkinson's disease. Rats of the 6-OHDA model of Parkinson's disease received bilateral injections of 6-OHDA into the striatum and coordinates Anterior-Posterior (AP): Medial-Lateral (ML): Dorsal-Ventral (DV), 1±3, −5 mm relative to Bregma under anaesthesia. Rats were tested for locomotor activity at least 28 days later.
Locomotor activity was measured in an open field arena covered in an array of infrared beams. Beam breaks by the animals were processed using AMLOGGER software to monitor activity.

[3] = system: conscious beagle dogs; assay: Effects on the cardiovascular system using telemetry in conscious beagle dogs; assay type: in vivo, dog; conditions: single oral gavage doses 30, 100 and 300 mg/kg, compared to vehicle
Text: The beagle dogs are equipped with telemetry devices from DSI PHYSIOTEL® Digital L21 transmitter implants according to the appropriate Charles River Laboratories, Montreal, QC Standard Operating Procedure (TB 12-04-06). The biopotential leads are placed in a modified lead II configuration. A minimum acclimation period of 6 days is allowed between animal arrival and the start of the surgical implantation of the telemetry devices in order to accustom the animals to the laboratory environment. A minimum recovery period of 4 weeks is allowed between surgeries and the start of treatment. […]
The parameters monitored include: heart rate derived from blood pressure, left ventricular pressure (LVP), and electrocardiogram waveforms; LVP (peak systolic and end-diastolic LVP and max positive/negative dP/dt values); electrocardiogram (PR interval (PR), RR variability (RR″), QRS complex (QRS), QT intervals, and QTcv calculated using the Van de Water equation QTcv=QT−87(60/HR−1)); and body temperature.
Marking of ECG segments is conducted using ECG Pattern Recognition software. A library for each animal is constructed of representative cycles from both the day and night cycle and is applied across monitoring occasions to ensure appropriate marking for quantitative assessments, in accordance with the appropriate Charles River Laboratories, Montreal, QC. […]

[4] = molecular target: human hERG (Homo sapiens (Human), UniProt Q12809); assay: Inhibition of human hERG via automated whole cell patch clamp; assay type: cell-based; conditions: for IC50: CHO-K1 cells transfected with human hERG cDNA, patch clamp; for safety margin relative to inhibition of hERG: statement in words
human hERG, sequence (Q12809 whole entry): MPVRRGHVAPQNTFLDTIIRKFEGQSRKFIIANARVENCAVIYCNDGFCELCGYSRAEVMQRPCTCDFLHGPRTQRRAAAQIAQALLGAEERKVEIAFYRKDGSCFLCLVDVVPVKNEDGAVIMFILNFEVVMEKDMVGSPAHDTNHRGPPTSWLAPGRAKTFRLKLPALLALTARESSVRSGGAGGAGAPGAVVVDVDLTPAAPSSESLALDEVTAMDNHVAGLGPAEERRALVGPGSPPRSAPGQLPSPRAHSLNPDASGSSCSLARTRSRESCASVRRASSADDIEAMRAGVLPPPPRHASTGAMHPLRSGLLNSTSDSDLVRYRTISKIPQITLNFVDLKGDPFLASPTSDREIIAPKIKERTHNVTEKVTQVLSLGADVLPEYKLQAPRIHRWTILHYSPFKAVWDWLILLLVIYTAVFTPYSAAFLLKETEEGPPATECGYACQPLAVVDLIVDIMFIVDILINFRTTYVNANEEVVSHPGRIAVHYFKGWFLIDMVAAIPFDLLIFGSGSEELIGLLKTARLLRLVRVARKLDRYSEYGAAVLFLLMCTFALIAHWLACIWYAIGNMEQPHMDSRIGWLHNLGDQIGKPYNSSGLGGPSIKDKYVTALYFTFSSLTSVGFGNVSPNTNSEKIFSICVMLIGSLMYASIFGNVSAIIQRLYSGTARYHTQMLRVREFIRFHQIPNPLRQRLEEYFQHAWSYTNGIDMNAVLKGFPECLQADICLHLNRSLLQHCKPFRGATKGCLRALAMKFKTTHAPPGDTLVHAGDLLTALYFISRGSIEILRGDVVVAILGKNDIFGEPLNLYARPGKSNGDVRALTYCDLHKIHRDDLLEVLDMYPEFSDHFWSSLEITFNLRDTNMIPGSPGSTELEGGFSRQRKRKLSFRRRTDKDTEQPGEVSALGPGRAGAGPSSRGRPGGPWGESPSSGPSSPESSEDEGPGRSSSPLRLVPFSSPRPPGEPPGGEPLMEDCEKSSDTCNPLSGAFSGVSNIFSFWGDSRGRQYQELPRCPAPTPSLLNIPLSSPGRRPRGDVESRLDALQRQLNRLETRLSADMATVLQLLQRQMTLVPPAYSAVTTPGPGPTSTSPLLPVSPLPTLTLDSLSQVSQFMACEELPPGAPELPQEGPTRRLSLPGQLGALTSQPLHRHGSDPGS
Protocol: An automated whole cell patch-clamp system (QPATCH® 16) is used to record outward potassium currents from a single cell. The assay employs CHO-K1 (Chinese Hamster Ovary) cells stably transfected with human hERG cDNA. The cells are harvested by trypsinization and maintained in serum-free medium at room temperature before recording. The cells are washed and re-suspended in the extracellular solution before being applied to the automated patch-clamp sites. The test solutions are prepared in the aqueous extracellular solution (137 mM NaCl, 4 mM KCl, 1.8 mM CaCl2), 1 mM MgCl2, 10 mM D(+)-Glucose, 10 mM HEPES, pH adjusted to 7.4 with NaOH) on the day of patch-clamp assay. Seven concentrations (0.03, 0.1, 0.3, 1, 3, 10, and 30 μM) of the test compound are used to determine IC50. The aqueous intracellular solution contains 130 mM KCl, 10 mM NaCl, 1 mM MgCl2, 10 mM EGTA, 5 mM MgATP, and 10 mM HEPES (pH adjusted to 7.2 with KOH).
After whole cell configuration is achieved, the cell is held at −80 mV. A 50 ms pulse to −40 mV is delivered to measure the leaking current, which is subtracted from the tail current on-line. Then the cell is depolarized to +20 mV for 2 seconds, followed by a 1 second pulse to −40 mV to reveal the hERG tail current. This paradigm is delivered once every 5 seconds to monitor the current amplitude. The assay is conducted at room temperature. The extracellular solution (control) is applied first and the cell is stabilized in the solution for 5 minutes. Then the test compound is applied from low to high concentrations sequentially on the same cell. The cells are incubated with each test concentration for 5 minutes. A reference compound E-4031 (N-(4-(1-(2-(6-methylpyridin-2-yl)ethyl)piperidine-4-carbonyl)phenyl)methanesulfonamide) is tested concurrently at multiple concentrations to obtain an IC50 value. The percent inhibition of hERG channel is calculated by comparing the tail current amplitude before and after application of the compound (the current difference is normalized to the control).

[5] = molecular target: human GPR6 (Homo sapiens (Human), UniProt P46095); conditions: membranes from CHO-K1 cells expressing human GPR6, 3H radioligand
human GPR6, sequence (P46095 whole entry): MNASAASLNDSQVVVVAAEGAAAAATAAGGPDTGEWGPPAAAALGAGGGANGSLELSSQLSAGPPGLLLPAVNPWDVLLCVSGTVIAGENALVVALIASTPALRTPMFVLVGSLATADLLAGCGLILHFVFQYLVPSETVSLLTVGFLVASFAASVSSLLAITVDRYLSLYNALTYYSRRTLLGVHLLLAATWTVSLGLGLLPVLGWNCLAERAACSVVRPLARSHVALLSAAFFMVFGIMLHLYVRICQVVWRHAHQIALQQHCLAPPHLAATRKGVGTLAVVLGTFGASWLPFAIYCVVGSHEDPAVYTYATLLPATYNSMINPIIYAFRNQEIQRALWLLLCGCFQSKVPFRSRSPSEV
Protocol: A competition binding assay using a filtration-based format is used to study the binding characteristics of GPR6 inverse agonists. The method employs membranes prepared from CHO-K1 cells expressing human GPR6 cDNA driven by a doxycycline inducible promoter. Assay ready 96 well plates (651201, Greiner, USA) containing serial dilutions of test compounds (1 μL of test ligand/well) are prepared in DMSO using liquid handlers (5 μM, final assay top concentration). Assay buffer (50 mM Tris, pH 7.4, 50 mM NaCl, 6 mM MgCl2, fatty acid free 0.1% BSA, 1:100 proteinase inhibitor cocktail, Sigma USA) is added (39 μL/well) and the plates are mixed on a plate shaker for 10 minutes. GPR6-specific ^3H radioligand is prepared in assay buffer and is added to each well (40 μL, 2.4 nM final assay concentration).
To initiate the binding reactions, 40 μL of total membranes obtained from cells expressing human GPR6 receptors is added. The membranes are prepared in assay buffer and added per well to 15 μg/well final assay concentration. […] Scintillator sheet (1450-411, PerkinElmer, USA) is melted on filters and heat-sealed before CPM/well were quantified in MICROBETA® Trilux instrument (PerkinElmer, USA). […] The IC50 and Ki values are calculated using non-linear regression analysis in Prism (GraphPad, USA). Kd values are determined in standard radioligand saturation experiments.

GPR6 receptor expressed in CHO-K1 cells, sequence (P46095 whole entry): as above

CC(=O)N1CCc2nc(N3CCC(Oc4ccc(F)cc4F)CC3)c(N[C@@H]3CCOC3)nc2C1 [Formula 1, (R)-1-(2-(4-(2,4-difluorophenoxy)piperidin-1-yl)-3-((tetrahydrofuran-3-yl)amino)-7,8-dihydropyrido[3,4-b]pyrazin-6(5H)-yl)ethan-1-one]
pEC50 [1]: 7.2
locomotor activity ([2]; 5 mg/kg and 10 mg/kg, compared to vehicle, after 50 minutes, FIG. 1): dose dependent improvement in locomotor activity
locomotor activity ([2]; 10 mg/kg dose): significant increase in activity
arterial blood pressures, contractility, P-R interval, QRS complex, QT interval durations [3]: No changes are observed
IC50 [4]: 1.97 µM
hERG inhibition potency compared with Compound A ([4]; comparison in words): significantly less potent inhibitor of hERG than Compound A
safety margin relative to inhibition of hERG [4]: improved SM-free
Ki [5]: 0.0055 µM

CC(=O)N1CCc2nc(N3CCC(Oc4ccc(F)cc4F)CC3)c(N[C@H]3CCOC3)nc2C1 [Compound A, (S)-1-(2-(4-(2,4-difluorophenoxy)piperidin-1-yl)-3-((tetrahydrofuran-3-yl)amino)-7,8-dihydropyrido[3,4-b]pyrazin-6(5H)-yl)ethan-1-one, reference compound]
pEC50 [1]: 7.2
IC50 [4]: 0.505 µM
safety margin relative to inhibition of hERG [4]: suboptimal safety margin
Ki [5]: 0.006 µM
